Like-named read-outs stand apart in the source and are kept apart here. Residues, ends and D or L forms follow the SMILES beside them. No end group written: not given here.
Tests used:
CaSte2 [1] = details: CaSte2 (yTC384), no protease; Hill function best-fit ± standard error
[2] = system: CaSte2 with protease CaBar1
[3] = system: CaSte2 with protease CaBar1; details: read-out: "EC50" of the first response phase; biphasic dose-response, phase treated as separate Hill fit
CaSte2 [4] = assay: CaSte2 biosensor with lycopene readout, without CaBar1 (yTC646); details: -CaBar1 strain; 50-300 nM peptide; 1-h preincubation, 7-h incubation
[5] = target: T1, Schizosaccharomyces pombe pheromone GPCR SpSte2 (Schizosaccharomyces pombe) (UniProt Q00619); assay: cell-based or functional assay
T1 sequence: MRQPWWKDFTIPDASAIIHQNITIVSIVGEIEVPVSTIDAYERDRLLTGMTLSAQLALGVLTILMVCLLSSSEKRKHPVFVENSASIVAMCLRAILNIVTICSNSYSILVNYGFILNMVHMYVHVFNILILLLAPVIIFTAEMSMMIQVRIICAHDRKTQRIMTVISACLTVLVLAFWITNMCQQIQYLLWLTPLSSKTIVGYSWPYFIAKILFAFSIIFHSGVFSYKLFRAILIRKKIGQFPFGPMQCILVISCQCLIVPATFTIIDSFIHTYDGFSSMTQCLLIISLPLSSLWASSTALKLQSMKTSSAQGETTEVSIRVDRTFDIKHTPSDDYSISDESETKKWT

[6] = system: SjSte2 with peptide proteases; type: cell-based, Schizosaccharomyces japonicus; details: read-out: apparent EC50
S. cerevisiae GPCR = target: T2, S. cerevisiae GPCR (Saccharomyces cerevisiae, UniProt D6VTK4); assay: Aspergillus spp peptide/GPCR orthogonality matrix, S. cerevisiae GPCR; type: cell-based; details: 40 μM peptide
T2 sequence (D6VTK4 whole entry, looked up): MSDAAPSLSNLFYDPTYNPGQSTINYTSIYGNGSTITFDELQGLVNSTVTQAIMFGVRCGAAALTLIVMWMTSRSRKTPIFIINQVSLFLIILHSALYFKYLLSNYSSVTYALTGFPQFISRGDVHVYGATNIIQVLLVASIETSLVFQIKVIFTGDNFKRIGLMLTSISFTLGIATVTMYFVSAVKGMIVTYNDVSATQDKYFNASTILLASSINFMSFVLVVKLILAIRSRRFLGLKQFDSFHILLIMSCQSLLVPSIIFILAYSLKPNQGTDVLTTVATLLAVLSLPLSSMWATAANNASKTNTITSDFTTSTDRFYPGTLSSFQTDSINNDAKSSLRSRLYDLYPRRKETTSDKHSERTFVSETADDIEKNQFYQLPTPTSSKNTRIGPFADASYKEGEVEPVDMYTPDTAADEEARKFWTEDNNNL
Protocol: FIGS. 6A-6B show Aspergillus spp peptide cross-reactivity with Aspergillus spp GPCRs. […] The test concentration was set at 40 μM of a given peptide ligand.
Next, 13 GPCRs of all genome-mined Aspergillus species, including A. fumigatus from Example 1 and S. cerevisiae, along with inducible fluorescent readout were integrated into optimized parent strain. S. cerevisiae was included to test cross-reactivity with S. cerevisiae GPCR and peptide, since this peptide/GPCR pair will be used for building multi-cellular amplification communities. Then, each strain was activated with all Aspergillus peptides and S. cerevisiae peptide (FIG. 6A). Most of the Aspergillus GPCRs were responsive to at least one peptide, except A. terreus, A. flavus/A. oryzae (same GPCR sequence), A. niger and A. nidulans which were not responsive to any tested peptide. […] The majority of peptides have the same sequence (A. fischeri, A. fumigatus, A. lentulus, A. novofumigatus, A. udagawae and A. viridinutans) and the other active peptides differ only in the third amino acid position from N-terminus (A. clavatus, A. flavus and A. oryzae).

AfuSte2 [7] = type: cell-based, A. fumigatus
fungal cognate receptors = type: cell-based
AfuSte2 [8] = type: cell-based, A. fumigatus; remark: listed apart in the source
AfuSte2 [9] = type: cell-based, Aspergillus fumigatus; details: nasal swab solution; 30° C. and room temperature
Protocol: (left) and room temperature (right).
To determine whether the yeast biosensor can detect the targeted pathogen analyte in the presence of the nasal swab solution. The yeast biosensor's ability to detect its cognate fungal biomarker in the presence of the nasal swab solution was tested. […] This experiment involved a biosensor containing an Ste2 homolog from Aspergillus fumigatus (AfuSte2) that produces lycopene in response to its cognate pheromone peptide (AfuPep). […] Experiments were carried out at yeast standard growth conditions, which include at 30° C.; experiments also needed to be conducted at at-home-like temperatures to ensure that the biosensor is viable and active in these settings. When incubated at room temperature, the yeast still produced an observable difference in lycopene compared to the water negative control (FIG. 24).

AfuSte2 [10] = system: AfuSte2
[11] = system: AfuSte2 (first member), ScSte2 (second member); type: cell-based, A. fumigatus
[12] = target: S. octosporus pheromone peptide (SoPep) (Schizosaccharomyces octosporus); assay: cell-based or functional assay
[13] = fine-tuned optimized strain (yTC453/pDR01)
[14] = natural signaling pathway (yMJ194/pDR01)

GARLTNFGYFEPG [CaPep2A] was tested, and the “Hill Slope” value (CaSte2 [1]) was 1.4 ± 0.3, the “Hill Slope” value ([2]; CaSte2 + CaBar1 (yBB02), Hill function best-fit ± standard error) was 1.6 ± 0.3 and the EC50 ([2]; biosensor with protease CaBar1 under intermediate pRPL18B promoter, 10-h incubation) was ~40 nM. For the same molecule, the “cleavage by CaBar1 protease” value ([2]; judged from CaSte2 activation with/without CaBar1) was “does not cleave”, the EC50 [3] was ~1 nM and the “color development in yeast pellets” value (CaSte2 [4]) was “robust orange color development”.

With S. pombe pheromone peptide (SpPep) the apparent EC50, ymTurquoise2, strain co-expressing SpSxa2 [5] was 100 µM.

With VSDRVKQMLSHWWNERNPDTANL [SjPep] the EC50 [6] was > 100 µM.

In the case of “WCWLPGQGC [A. terreus peptide, A. terreus pheromone peptide]”, the “cross-reaction with S. cerevisiae GPCR” value (S. cerevisiae GPCR) is reported as “cross-reacted”.

In the case of CC(C)C[C@H](NC(=O)[C@H](Cc1c[nH]cn1)NC(=O)[C@H](CS)NC(=O)[C@@H](N)Cc1c[nH]c2ccccc12)C(=O)N1CCC[C@H]1C(=O)NCC(=O)N[C@@H](CCC(N)=O)C(=O)NCC(=O)N[C@@H](CS)C(=O)O [AfuPep] (H-WCHLPGQGC-OH; N-terminus and C-terminus assumed), the “fluorescence intensity relative to background fluorescence” value (AfuSte2 [7]) is reported as “two-fold”, the “activation of fungal cognate receptors by AfuPep” value (fungal cognate receptors) is reported as “nor did AfuPep activate fungal cognate receptors” and the “LoD / color detection limit in liquid culture” value (AfuSte2 [8]) is reported as 50 nM. For the same molecule, the “limit of detection (LoD) in liquid culture” value (AfuSte2 [8]) was ~30 nM, the “time to faint visible color in culture pellets” value (AfuSte2 [8]) was “one hour” and the “time to obvious color change in liquid culture” value (AfuSte2 [8]) was “two hours”. For the same molecule, the “lycopene production in the presence of human biospecimens” value (AfuSte2 [9]) was “produces lycopene only when AfuPep is present”, the “fold change of fluorescence readout compared to background” value (AfuSte2 [10]; AfuSte2 on plasmid, inducible mCherry in optimized strain, FIG. 1B) was “around 4,000 fold” and the EC50 (AfuSte2 [10]; [13]) was ~40 nM. For the same molecule, the activation fold change (AfuSte2 [10]; [13]) was 2,900 fold, the basal expression (AfuSte2 [10]; [13]) was “practically zero” and the maximal activation (AfuSte2 [10]; [13]) was ~2,900 A.U. The EC50 (AfuSte2 [10]; [14]) was ~10 nM, the activation fold change (AfuSte2 [10]; [14]) was 19 fold and the maximal activation (AfuSte2 [10]; [14]) was ~450 A.U. For the same molecule, the basal expression (AfuSte2 [10]; older strain with natural signaling pathway (yMJ194/pDR01)) was ~20 A.U, the EC50 (AfuSte2 [10]; read-out: EC50 value (concentration of peptide required for half-maximal activation), AfuSte2 on plasmid, inducible mCherry in optimized strain, FIG. 1B) was ~100 nM and the “fold lower AfuPep concentration at which receiver strain responds vs sender strain” value [11] was 8 fold.

B1: Schizosaccharomyces octosporus serine carboxypeptidase Sxa2 (SoSxa2) (enzyme)
chain: MNLAVHVLLLSFLLYTVHSFPAYPPYPIYPRSSLNSSNASSVPIPQPSYNSSSKAMNPDLVTSLPEYSGSLPELYSGYLSAENFKQIFYTFAPAITPTDKFIVWLQGGPGCAGTLGFFSENGPIILDPNHQTPQDNPNSWTRFANMMWIDQPFGTGYSQGSPLASTVSIATSDFIQTLKSFYAKFPEMKEKELYLVGESYGSVWGAYFAQALRSDPELHAIPFGGLGIISGLLSDYETQNTITASMWLDHVNKMGLYYTNESAEVSTFFAAKNQQCGYAEVLERMQFPAEQTPIPKPRVNLTNSFSKKKRQADSDSDSGNIKEAFQMITDCDTYTLTDFLLYLKNHCMITYDITLDCSFNSNNDPLTTYLNRKDVQKQLHAIHVESALTSSKGIFGNGCNYDVYGDIVKNGAPSILEEAIPELVQNYKVSFLAGALDFQLLWTGSLLALQNTTWNGWQGFQEIPDLNSPFGFTLDERNLAFTLSNKVGHMAPSKDPSMVIDWLQKTLLG
In the case of B1, the shift of apparent EC50 on the cognate GPCR with the protease co-expressed (orders of magnitude) [12] is reported as 1.5.

— US20240368664A1, “LIVE YEAST BIOSENSORS AND METHODS OF USE THEREOF” (priority 2021, published 2024)
